The target in the experiment is T1, full length human TPH1 (Homo sapiens, UniProt P17752).
T1 construct: To generate the enzyme, full length human TPH1 is cloned into the plasmid pET20b(+); made in house; host or cells: E. coli
T1 sequence (P17752 1-444): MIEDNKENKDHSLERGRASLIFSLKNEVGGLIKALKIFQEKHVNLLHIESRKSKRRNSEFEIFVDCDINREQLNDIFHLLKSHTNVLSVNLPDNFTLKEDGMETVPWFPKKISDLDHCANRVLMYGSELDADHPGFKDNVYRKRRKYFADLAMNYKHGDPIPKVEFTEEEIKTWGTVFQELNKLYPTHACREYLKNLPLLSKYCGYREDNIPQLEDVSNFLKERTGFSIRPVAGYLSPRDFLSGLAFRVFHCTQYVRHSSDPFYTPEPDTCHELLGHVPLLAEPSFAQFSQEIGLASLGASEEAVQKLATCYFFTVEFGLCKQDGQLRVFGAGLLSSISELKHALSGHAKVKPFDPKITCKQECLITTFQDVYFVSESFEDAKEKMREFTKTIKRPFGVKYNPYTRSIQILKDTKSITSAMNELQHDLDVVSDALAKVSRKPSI
In words: Biochemical in vitro assay using fluorescence readout (TPH1 enzyme activity). Particulars: Table 1, mean where determined several times. In short, it runs like this: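 E. coli-expressed full-length human TPH1 (40-80 nM), affinity- and size-exclusion-purified, incubated 60 min at 15° C. in 0.1M Tris-HCl pH 7.6 with 1 mM DTT, 0.2 mg/ml catalase, 100 μM 6-methyltetrahydropterine and 40 μM L-tryptophan. 5-Hydroxy-L-tryptophan read by fluorescence (ex 300/em 540 nm) after HClO4 quench; IC50 versus vehicle, mean where repeated.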
With `CC(C)(O)c1ccc(C2c3c(nc4n3CCCC4)CCN2C(=O)COc2ccc(C(=O)NC3CC3)nc2Cl)c(F)c1` (centres unmarked) [Example 1.24.1, 6-chloro-N-cyclopropyl-5-(2-(1-(2-fluoro-4-(2-hydroxypropan-2-yl)phenyl)-3,4,6,7,8,9-hexahydroimidazo[1,2-a:5,4-c′]dipyridin-2(1H)-yl)-2-oxoethoxy)picolinamide], 68 nM corresponded to half-maximal inhibition (IC50).

Turning to `O=C(NC1CC1)c1ccc(OCC(=O)N2CCc3nc4n(c3C2c2ccc(Cl)cc2F)CCS4)c(Cl)n1` (centres unmarked) [Example 4.1.12, 6-chloro-5-(2-(5-(4-chloro-2-fluorophenyl)-2,3,7,8-tetrahydrothiazolo[2′,3′:2,3]imidazo[4,5-c]pyridin-6(5H)-yl)-2-oxoethoxy)-N-cyclopropylpicolinamide], half-maximal inhibition (IC50) required 9 nM.

Turning to `CS(=O)(=O)Nc1ccc(OCC(=O)N2CCc3nc4n(c3C2c2ccc(Cl)cc2F)CCC4)c(Cl)n1` (centres unmarked) [Example 2.1.1, N-(6-chloro-5-(2-(1-(4-chloro-2-fluorophenyl)-3,4,7,8-tetrahydro-1H-pyrrolo[2′,1′:2,3]imidazo[4,5-c]pyridin-2(6H)-yl)-2-oxoethoxy)pyridin-2-yl)methanesulfonamide], the midpoint of inhibition, the IC50, lay at 13 nM.

For `O=C(COc1ccc(N2CCOCC2)nc1Cl)N1CCc2nc3n(c2C1c1ccc(Cl)cc1F)CCOC3` (centres unmarked) [Example 6.1.1, 1-(6-(4-chloro-2-fluorophenyl)-3,4,8,9-tetrahydro-1 H-pyrido[4′,3′:4,5]imidazo[2,1-c][1,4]oxazin-7(6H)-yl)-2-((2-chloro-6-morpholinopyridin-3-yl)oxy)ethanone], the IC50 is 4 nM.

`COCc1ccc(C2c3c(nc4n3CCCC4)CCN2C(=O)COc2ccc(C(=O)NC3CC3)nc2Cl)c(F)c1` (centres unmarked) [Example 1.26.1, 6-chloro-N-cyclopropyl-5-(2-(1-(2-fluoro-4-(methoxymethyl)phenyl)-3,4,6,7,8,9-hexahydroimidazo[1,2-a:5,4-c′]dipyridin-2(1H)-yl)-2-oxoethoxy)picolinamide] displayed an IC50 of 19 nM.

Regarding `N#Cc1ccc(C2c3c(nc4n3CCCC4)CCN2C(=O)COc2ccc(C(=O)NC3CC3)nc2Cl)c(F)c1` (centres unmarked) [Example 1.22.2, 6-chloro-5-(2-(1-(4-cyano-2-fluorophenyl)-3,4,6,7,8,9-hexahydroimidazo[1,2-a:5,4-c′]dipyridin-2(1H)-yl)-2-oxoethoxy)-N-cyclopropylpicolinamide], half-maximal inhibition (IC50) required 28 nM.

`CCc1nc(C2CC2)ccc1OCC(=O)N1CCc2nc3n(c2C1c1ccc(Cl)cc1F)CCS3` (centres unmarked) [Example 4.1.14, 1-(5-(4-chloro-2-fluorophenyl)-2,3,7,8-tetrahydrothiazolo[2′,3′:2,3]imidazo[4,5-c]pyridin-6(5H)-yl)-2-((6-cyclopropyl-2-ethylpyridin-3-yl)oxy)ethanone] yielded an IC50 of 16 nM.

`CCc1nc(C)ccc1OCC(=O)N1CCc2nc3n(c2C1c1ccc(C2CC2)cc1F)CCN(C(C)=O)C3` (centres unmarked) [Example 5.2.17, 1-(7-acetyl-1-(4-cyclopropyl-2-fluorophenyl)-3,4,6,7,8,9-hexahydropyrido[4′,3′:4,5]imidazo[1,2-a]pyrazin-2(1H)-yl)-2-((2-ethyl-6-methylpyridin-3-yl)oxy)ethanone] yielded a half-inhibitory concentration (IC50) of 11 nM.

For the compound `CCc1nc(C)c(C2c3c(nc4n3CCCC4)CCN2C(=O)COc2ccc(NS(C)(=O)=O)nc2Cl)s1` (centres unmarked) [Example 1.11.1, N-(6-chloro-5-(2-(1-(2-ethyl-4-methylthiazol-5-yl)-3,4,6,7,8,9-hexahydroimidazo[1,2-a:5,4-c′]dipyridin-2(1H)-yl)-2-oxoethoxy)pyridin-2-yl)methanesulfonamide], the IC50 amounted to 49 nM.

Compound `CS(=O)(=O)Nc1ccc(OCC(=O)N2CCc3nc4n(c3C2c2ccc(Cl)cc2F)CCCCC4)c(Cl)n1` (centres unmarked) [Example 3.1.1, N-(6-chloro-5-(2-(1-(4-chloro-2-fluorophenyl)-3,4,7,8,9,10-hexahydro-1H-pyrido[4′,3′:4,5]imidazo[1,2-a]azepin-2(6H)-yl)-2-oxoethoxy)pyridin-2-yl)methanesulfonamide] displayed an IC50 of 26 nM.

Turning to `CCc1nc(N2CCCS2(=O)=O)ccc1OCC(=O)N1CCc2nc3n(c2C1c1scnc1C)CCCC3` (centres unmarked) [Example 1.13.2, 2-((6-(1,1-dioxidoisothiazoli132din-2-yl)-2-ethylpyridin-3-yl)oxy)-1-(1-(4-methylthiazol-5-yl)-3,4,6,7,8,9-hexahydroimidazo[1,2-a:5,4-c′]dipyridin-2(1H)-yl)ethanone], the IC50 is 15 nM.

Compound `O=C(COc1ccc(N2CCCS2(=O)=O)nc1Cl)N1CCc2nc3n(c2C1c1ccc(Cl)cc1F)CCCC3` (centres unmarked) [Example 1.1.10, 1-(1-(4-chloro-2-fluorophenyl)-3,4,6,7,8,9-hexahydro-imidazo[1,2-a:5,4-c′]dipyridin-2(1H)-yl)-2-((2-chloro-6-(1,1-dioxidoisothiazolidin-2-yl)pyridin-3-yl)oxy)-ethanone] showed an IC50 of 17 nM.

In turn, `CCc1nc(NS(C)(=O)=O)ccc1OCC(=O)N1CCc2nc3n(c2C1c1sccc1F)CCS3` (centres unmarked) [Example 4.6.3, N-(6-ethyl-5-(2-(5-(3-fluorothiophen-2-yl)-2,3,7,8-tetrahydrothiazolo[2′,3′:2,3]imidazo[4,5-c]pyridin-6(5H)-yl)-2-oxoethoxy)pyridin-2-yl)methanesulfonamide] came in with a concentration for half-maximal inhibition (IC50) of 19 nM.

The compound `CCc1nc(NS(C)(=O)=O)ncc1OCC(=O)N1CCc2nc3n(c2C1c1ccc(C)c(F)c1F)CCCC3` (centres unmarked) [Example 1.9.9, N-(5-(2-(1-(2,3-difluoro-4-methylphenyl)-3,4,6,7,8,9-hexahydroimidazo[1,2-a:5,4-c′]dipyridin-2(1H)-yl)-2-oxoethoxy)-4-ethylpyrimidin-2-yl)methanesulfonamide] gave an IC50 of 58 nM.

In turn, `CCc1nc(C(=O)NC2CC2)ccc1OCC(=O)N1CCc2nc3n(c2C1c1ccc(Cl)cc1F)CCCC3` (centres unmarked) [Example 1.1.12, 5-(2-(1-(4-chloro-2-fluorophenyl)-3,4,6,7,8,9-hexahydroimidazo[1,2-a:5,4-c′]dipyridin-2(1H)-yl)-2-oxoethoxy)-N-cyclopropyl-6-ethylpicolinamide] showed an IC50 of 9 nM.

On to `Cc1ccc(C2c3c(nc4n3CCS4)CCN2C(=O)COc2ccc(C(=O)NC3CC3)nc2Cl)c(F)c1F` (centres unmarked) [Example 4.4.2, 6-chloro-N-cyclopropyl-5-(2-(5-(2,3-difluoro-4-methylphenyl)-2,3,7,8-tetrahydrothiazolo[2′,3′:2,3]imidazo[4,5-c]pyridin-6(5H)-yl)-2-oxoethoxy)picolinamide], for which it took 15 nM to reach half-maximal inhibition (IC50).

Regarding `COC(=O)c1csc(C2c3c(nc4n3CCN(C(C)=O)C4)CCN2C(=O)COc2ccc(N3CCOCC3)nc2Cl)c1` (centres unmarked) [Example 5.5.1, methyl 5-(7-acetyl-2-(2-((2-chloro-6-morpholinopyridin-3-yl)oxy)acetyl)-1,2,3,4,6,7,8,9-octahydropyrido[4′,3′:4,5]imidazo[1,2-a]pyrazin-1-yl)thiophene-3-carboxylate], the IC50 turned out to be 5 nM.

In the case of `CS(=O)(=O)Nc1ccc(OCC(=O)N2CCc3nc4n(c3C2c2ccc(C3CC3)cc2F)CCS4)c(Cl)n1` (centres unmarked) [Example 4.3.2, N-(6-chloro-5-(2-(5-(4-cyclopropyl-2-fluorophenyl)-2,3,7,8-tetrahydrothiazolo[2′,3′:2,3]imidazo[4,5-c]pyridin-6(5H)-yl)-2-oxoethoxy)pyridin-2-yl)methanesulfonamide], 10 nM corresponded to half-maximal inhibition (IC50).

`CN(c1ccc(OCC(=O)N2CCc3nc4n(c3C2c2ccc(Cl)cc2F)CCCC4)c(Cl)n1)S(C)(=O)=O` (centres unmarked) [Example 1.1.9, N-(6-chloro-5-(2-(1-(4-chloro-2-fluorophenyl)-3,4,6,7,8,9-hexahydroimidazo[1,2-a:5,4-c′]dipyridin-2(1H)-yl)-2-oxoethoxy)pyridin-2-yl)-N-methylmethanesulfonamide] displayed an IC50 of 25 nM.

In turn, `CN(C)C(=O)c1ccc(OCC(=O)N2CCc3nc4n(c3C2c2ccc(C3CC3)cc2F)CCCC4)c(Cl)n1` (centres unmarked) [Example 1.8.4, 6-chloro-5-(2-(1-(4-cyclopropyl-2-fluorophenyl)-3,4,6,7,8,9-hexahydroimidazo[1,2-a:5,4-c′]dipyridin-2(1H)-yl)-2-oxoethoxy)-N,N-dimethylpicolinamide] registered an IC50 of 11 nM.

`CCc1cc(Cl)ccc1OCC(=O)N1CCc2nc3n(c2C1c1ncc(C2CC2)cc1F)CCNC3` (centres unmarked) [Example 5.4.5, 2-(4-chloro-2-ethylphenoxy)-1-(1-(5-cyclopropyl-3-fluoropyridin-2-yl)-3,4,6,7,8,9-hexahydropyrido[4′,3′:4,5]imidazo[1,2-a]pyrazin-2(1H)-yl)ethanone] registered an IC50 of 143 nM.

`CCc1nc(N2CCCS2(=O)=O)ccc1OCC(=O)N1CCc2nc3n(c2C1c1cnc(C)s1)CCCC3` (centres unmarked) [Example 1.15.2, 2-((6-(1,1-dioxidoisothiazolidin-2-yl)-2-ethylpyridin-3-yl)oxy)-1-(1-(2-methylthiazol-5-yl)-3,4,6,7,8,9-hexahydroimidazo[1,2-a:5,4-c′]dipyridin-2(1H)-yl)ethanone] came in with a half-maximal inhibitory concentration (IC50) of 27 nM.

Compound `CCc1nc(C)ccc1OCC(=O)N1CCc2nc3n(c2C1c1ccc(Cl)cc1F)CCCC3` (centres unmarked) [Example 1.1.15, 1-(1-(4-chloro-2-fluorophenyl)-3,4,6,7,8,9-hexahydroimidazo[1,2-a:5,4-c′]dipyridin-2(1H)-yl)-2-((2-ethyl-6-methylpyridin-3-yl)oxy)ethanone] gave an IC50 of 39 nM.
